Target: T1, Avi-tagged FL MALT-1 (Homo sapiens, UniProt Q9UDY8)
T1 construct: Avi-tagged FL MALT-1 (Pharmaron, stored at −70° C.); Avi-tag; purchased Pharmaron
T1 sequence (Q9UDY8 1-824): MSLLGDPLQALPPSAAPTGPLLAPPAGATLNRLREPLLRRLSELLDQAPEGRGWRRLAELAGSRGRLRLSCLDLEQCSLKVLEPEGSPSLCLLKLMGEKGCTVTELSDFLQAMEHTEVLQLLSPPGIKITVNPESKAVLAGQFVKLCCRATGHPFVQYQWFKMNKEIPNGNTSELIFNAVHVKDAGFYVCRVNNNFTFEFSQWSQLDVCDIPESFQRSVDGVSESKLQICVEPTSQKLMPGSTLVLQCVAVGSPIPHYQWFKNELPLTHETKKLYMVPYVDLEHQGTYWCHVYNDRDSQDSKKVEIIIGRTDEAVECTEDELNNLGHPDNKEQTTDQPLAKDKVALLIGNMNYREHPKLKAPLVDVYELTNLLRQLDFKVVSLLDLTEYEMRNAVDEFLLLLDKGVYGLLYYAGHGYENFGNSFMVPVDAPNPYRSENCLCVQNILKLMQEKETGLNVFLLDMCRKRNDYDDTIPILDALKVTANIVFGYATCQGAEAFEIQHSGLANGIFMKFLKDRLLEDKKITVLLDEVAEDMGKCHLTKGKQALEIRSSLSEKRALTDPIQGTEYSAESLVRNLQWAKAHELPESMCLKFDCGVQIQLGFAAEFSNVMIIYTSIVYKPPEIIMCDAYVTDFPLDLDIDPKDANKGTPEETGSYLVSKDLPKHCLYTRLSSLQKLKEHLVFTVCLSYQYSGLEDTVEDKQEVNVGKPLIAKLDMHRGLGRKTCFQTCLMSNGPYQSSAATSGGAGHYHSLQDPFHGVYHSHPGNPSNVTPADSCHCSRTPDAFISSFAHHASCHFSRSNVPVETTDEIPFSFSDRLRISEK
Assay: MALT-1 Fluorogenic Peptide Cleavage Assay (MALT1 inhibition assay)
Assay type: biochemical
Conditions: Ac-LRSR-AMC peptide substrate; 30 min pre-incubation, 90 min reaction at room temperature; fluorescence
Protocol: Inhibition of MALT1 activity by a small molecule was evaluated using MALT-1 Fluorogenic Peptide Cleavage Assay. The assay utilizes a quenched AMC-labelled peptide that contains the MALT-1 recognition sequence and cleavage site (LRSR). MALT-1 mediated cleavage of the peptide relieves the quenching and leads to an increase in fluorescence at excitation (342 nm) and emission (441 nm).
The following reagents were obtained commercially and used to prepare standard reagent formulations as further described below: N-2-hydroxyethylpiperazine-N-2-ethane sulfonic acid (HEPES) (1 M, pH 7.5, stored at 4° C.), sodium citrate (stored at RT), tris(2-carboxyethyl)phosphine hydrochloride (T-CEP) (500 mM, stored at −20° C.), ethylenediaminetetraacetic acid (EDTA) (500 mM, stored at RT), dimethylsulfoxide (DMSO, stored at RT), 3-[(3-cholamidopropyl)dimethylammonio]-1-propane sulphate (CHAPS) (stored at RT), dimethylsulfoxide (DMSO), DMSO (Fisher Scientific, stored at RT), Avi-tagged FL MALT-1 (Pharmaron, stored at −70° C.), Ac-LRSR-AMC Peptide (SM Biochemicals, stored at −20° C.), and ultrapure water (MILLI-Q®).
The standard reagent formulations used in this assay were prepared and stored as follows. A 1.1 M solution of sodium citrate (161.3 g, 500 mL) was prepared and stored at room temperature. A 10% (w/v) CHAPS solution (2.0 g, 20 mL) was prepared and stored at 4° C. A 500 mM HEPES solution having pH of 6.89 was prepared from 200 mL of a 1 M HEPES solution having a pH of 7.5 using concentrated hydrochloric acid and brought to a final volume of 400 mL with MILLI-Q© H2O. The substrate, 10 mM Ac-LRSR-AMC Peptide, was prepared (10 mg, 1.370 mL DMSO) and stored at −20° C.
Compounds were plated to provide a 2% DMSO final concentration using a ProxiPlate-384 Plus F Black 384-shallow well microplate. The assay-ready plates were equilibrated to room temperature. A reaction buffer (30 mL total volume) was prepared by combining HEPES (pH 6.89, 25 mM, 1.5 mL), sodium citrate (660 mM, 18.0 mL), T-CEP (1 mM, 0.06 mL), EDTA (0.1 mM, 0.06 mL), CHAPS (0.05%, 0.15 mL), DMSO (2%, 0.6 mL), and MILLI-Q® H2O (10.23 mL; 9.63 mL when backfilled to 2% DMSO) followed by thorough mixing.
MALT-1 was thawed and kept on ice. Peptide substrate was thawed on the bench under ambient conditions. A MALT-1 enzyme working stock was prepared from Avi-tagged FL MALT-1 (40 nM in a prepared reagent volume of […]) and the reaction buffer (13.0 mL). MALT1 working stock (5 μL) was added to each well of the microplate. MALT-1 was pre-incubated with compounds for 30 minutes at room temperature.
Two substrate working stocks (Km and 10×Km) were prepared. The 1×Km substrate was prepared from Ac-LRSR-AMC Peptide (50 μM in a prepared reagent volume of […]) and the reaction buffer (6.965 mL). The 10×Km substrate was prepared from Ac-LRSR-AMC Peptide ([…] in a prepared reagent volume of 196.0 μL) and the reaction buffer (6.804 mL). The reaction was initiated by the addition of substrate working stock (5 μL, 50 μM) to Km plates and the addition of substrate working stock (5 μL 280 μM) to 10×Km plates. The plates were covered and incubated on the bench at room temperature for 90 minutes.
Fluorescence intensity was determined using a CLARIOstar microplate reader (BMG LABTECH) using the optimised AMC mode. Before taking readings, a 70% gain was applied on the neutral control well. Compound data were normalised to % Inhibition and used to plot sigmoidal concentration response curves to yield various parameters including IC50.

Compound | IC50
CN(CCO)C(=O)c1ccc(NC(=O)c2snc(-c3ccccc3)c2C2CC2)cc1Cl [I-24, N-(3-CHLORO-4-((2-HYDROXYETHYL) (METHYL)CARBAMOYL)PHENYL)-4-CYCLOPROPYL-3-PHENYLISOTHIAZOLE-5-CARBOXAMIDE] | ≤ 400 nM
COCCN(C)C(=O)c1ccc(NC(=O)c2snc(-c3ccccc3)c2C2CC2)cc1Cl [I-25, N-(3-CHLORO-4-((2-METHOXYETHYL) (METHYL) CARBAMOYL)PHENYL)-4-CYCLOPROPYL-3-PHENYL-ISOTHIAZOLE-5-CARBOXAMIDE] | ≤ 400 nM
O=C(Nc1ccnc(C(F)(F)F)c1)c1snc(-c2ccccc2)c1C1CC1 [I-26, 3-PHENYL-4-CYCLOPROPYL-N-(2-(TRIFLUOROMETHYL)PYRIDIN-4-YL)ISOTHIAZOLE-5-CARBOXAMIDE] | ≤ 400 nM
N#Cc1cc(NC(=O)c2snc(-c3ccccn3)c2C2CC2)cnc1-n1nccn1 [I-27, N-(5-CYANO-6-(2H-1,2,3-TRIAZOL-2-YL) PYRIDIN-3-YL)-4-CYCLOPROPYL-3-(PYRIDIN-2-YL)ISOTHIAZOLE-5-CARBOXAMIDE] | ≤ 400 nM
N#Cc1cc(NC(=O)c2snc(-c3ncccc3Cl)c2C2CC2)cnc1-n1nccn1 [I-28, 3-(3-CHLOROPYRIDIN-2-YL)-N-(5-CYANO-6-(2H-1,2,3-TRIAZOL-2-YL)PYRIDIN-3-YL)-4-CYCLOPROPYLISOTHIAZOLE-5-CARBOXAMIDE] | ≤ 400 nM
CN(C)c1ncc(NC(=O)c2snc(-c3ccccc3)c2C2CC2)cc1C#N [I-29, N-(5-CYANO-6-(DIMETHYLAMINO)PYRIDIN-3-YL)-4-CYCLOPROPYL-3-PHENYLISOTHIAZOLE-5-CARBOXAMIDE] | ≤ 400 nM
N#Cc1cncc(NC(=O)c2snc(-c3ccccc3)c2C2CC2)c1 [I-30, N-(5-CYANOPYRIDIN-3-YL)-4-CYCLOPROPYL-3-PHENYLISOTHIAZOLE-5-CARBOXAMIDE] | ≤ 400 nM
O=C(Nc1cnc(-n2nccn2)c(Cl)c1)c1snc(-c2cnc3ccccn23)c1C(F)(F)F [I-31] | ≤ 400 nM
N#Cc1cc(NC(=O)c2snc(-c3ccccc3)c2C2CC2)ccc1C(=O)N1CC(O)C1 [I-32] | ≤ 400 nM
Cc1ncc(NC(=O)c2snc(-c3ccccc3)c2C2CC2)cc1Cl [I-33] | ≤ 400 nM
N#Cc1cc(NC(=O)c2snc(C3CCOCC3)c2C(F)(F)F)cnc1-n1nccn1 [I-34] | ≤ 400 nM
O=C(Nc1cnc(-n2nccn2)c(Cl)c1)c1snc(-c2cccc3ncccc23)c1C(F)(F)F [I-35, N-(5-CHLORO-6-(2H-1,2,3-TRIAZOL-2-YL) PYRIDIN-3-YL)-3-(QUINOLIN-5-YL)-4-(TRIFLUOROMETHYL)ISOTHIAZOLE-5-CARBOXAMIDE] | ≤ 400 nM
Cn1cc(-c2nsc(C(=O)Nc3cnc(-n4nccn4)c(C#N)c3)c2C(F)(F)F)ccc1=O [I-36, N-(5-CYANO-6-(2H-1,2,3-TRIAZOL-2-YL)PYRIDIN-3-YL)-3-(1-METHYL-6-OXO-1,6-DIHYDROPYRIDIN-3-YL)-4-(TRIFLUORO-METHYL)ISOTHIAZOLE-5-CARBOXAMIDE] | ≤ 400 nM
Cn1cc(-c2nsc(C(=O)Nc3cnc(-n4nccn4)c(C#N)c3)c2C(F)(F)F)cn1 [I-37, N-(5-CYANO-6-(2H-1,2,3-TRIAZOL-2-YL)PYRIDIN-3-YL)-3-(1-METHYL-1H-PYRAZOL-4-YL)-4-(TRIFLUORO-METHYL)ISOTHIAZOLE-5-CARBOXAMIDE] | 400 to 1000 nM
CC(C)c1nsc(C(=O)Nc2cnc(-n3nccn3)c(C#N)c2)c1C(F)(F)F [I-38, N-(5-CYANO-6-(2H-1,2,3-TRIAZOL-2-YL) PYRIDIN-3-YL)-3-ISOPROPYL-4-(TRIFLUOROMETHYL)ISOTHIAZOLE-5-CARBOXAMIDE] | ≤ 400 nM
COc1c(-c2ccccc2)nsc1C(=O)Nc1cnc(-n2nccn2)c(Cl)c1 [I-39, N-(5-CHLORO-6-(2H-1,2,3-TRIAZOL-2-YL) PYRIDIN-3-YL)-4-METHOXY-3-PHENYLISOTHIAZOLE-5-CARBOXAMIDE] | ≤ 400 nM
COc1ncc(NC(=O)c2snc(-c3ccccc3)c2C2CC2)cc1Cl [I-40, N-(5-CHLORO-6-METHOXYPYRIDIN-3-YL)-4-CYCLOPROPYL-3-PHENYLISOTHIAZOLE-5-CARBOXAMIDE] | ≤ 400 nM
Cc1cc(NC(=O)c2snc(-c3ccccc3)c2C2CC2)cn(C)c1=O [I-41] | > 2500 nM
O=C(Nc1cncc(Cl)c1)c1snc(-c2ccccc2)c1C1CC1 [I-42, N-(5-CHLOROPYRIDIN-3-YL)-4-CYCLOPROPYL-3-PHENYLISOTHIAZOLE-5-CARBOXAMIDE] | ≤ 400 nM
O=C(Nc1cncc(F)c1)c1snc(-c2ccccc2)c1C1CC1 [I-43, 4-CYCLOPROPYL-N-(5-FLUOROPYRIDIN-3-YL)-3-PHENYLISOTHIAZOLE-5-CARBOXAMIDE] | > 2500 nM
COc1cncc(NC(=O)c2snc(-c3ccccc3)c2C2CC2)c1 [I-44, 4-CYCLOPROPYL-N-(5-METHOXYPYRIDIN-3-YL)-3-PHENYLISOTHIAZOLE-5-CARBOXAMIDE] | > 2500 nM
Cc1cncc(NC(=O)c2snc(-c3ccccc3)c2C2CC2)c1 [I-45, 4-CYCLOPROPYL-N-(5-METHYLPYRIDIN-3-YL)-3-PHENYLISOTHIAZOLE-5-CARBOXAMIDE] | 1000 to 2500 nM
CN(C)c1ccc(NC(=O)c2snc(-c3ccccc3)c2C2CC2)cn1 [I-46, 4-CYCLOPROPYL-N-(6-(DIMETHYLAMINO) PYRIDIN-3-YL)-3-PHENYLISOTHIAZOLE-5-CARBOXAMIDE] | > 2500 nM
Cn1ncc2cc(NC(=O)c3snc(-c4ccccc4)c3C3CC3)cnc21 [I-47, 4-CYCLOPROPYL-N-(1-METHYL-1H-PYRAZOLO [3,4-B]PYRIDIN-5-YL)-3-PHENYLISOTHIAZOLE-5-CARBOXAMIDE] | 400 to 1000 nM
Cc1cc(NC(=O)c2snc(-c3ccccc3)c2C2CC2)cnc1-n1ccnn1 [I-48, 4-CYCLOPROPYL-N-(5-METHYL-6-(1H-1,2,3-TRIAZOL-1-YL)PYRIDIN-3-YL)-3-PHENYLISOTHIAZOLE-5-CARBOXAMIDE] | ≤ 400 nM
O=C(Nc1ccc(C(=O)N2CC(O)C2)c(Cl)c1)c1snc(-c2ncccc2Cl)c1C1CC1 [I-49, N-(3-CHLORO-4-(3-HYDROXYAZETIDINE-1-CARBONYL)PHENYL)-3-(3-CHLOROPYRIDIN-2-YL)-4-CYCLOPROPYL-ISOTHIAZOLE-5-CARBOXAMIDE] | 1000 to 2500 nM
CN(C)C(=O)c1ncc(NC(=O)c2snc(-c3ccccc3)c2C2CC2)cc1Cl [I-50, N-(5-CHLORO-6-(DIMETHYLCARBAMOYL) PYRIDIN-3-YL)-4-CYCLOPROPYL-3-PHENYLISOTHIAZOLE-5-CARBOXAMIDE] | ≤ 400 nM

From US20260124222A1, “ISOTHIAZOLYLCARBOXAMIDE COMPOUNDS AND THEIR USE IN THERAPY” (HOTSPOT THERAPEUTICS, INC., priority 2022, published 2026)
